Laboratory results: publication PMC4230991, “In Silico Design and Biological Evaluation of a Dual Specificity Kinase Inhibitor Targeting Cell Cycle Progression and Angiogenesis” (PLoS ONE, 2014)
Where two headings read alike, the source gives them in different places. Each block holds one molecule with its values, some of them ahead of it.

How the values were obtained:
[1] = test system: FGF-stimulated intracellular signaling; assay: Immunoblot of FGF (aFGF, bFGF)-stimulated ERK1/2 phosphorylation in HUVECs; type: cell-based, human; settings: JK-31 0.1-50 µM
Protocol: (§1) All experiments were conducted at <6 cell passages.
(§2) Figure 2 JK-31 inhibits growth factor-stimulated receptor activation and downstream signal transduction. (A) HUVECs were pre-treated with JK-31 (0, 0.1, 1, 10 or 50 µM) for 30 min followed by 7.5 min stimulation with VEGF-A (25 ng/ml) in the presence of JK-31. Total cell lysates were prepared and processed for immunoblotting. Levels of phosphorylated VEGFR2, PLCγ1, Akt and ERK were analysed using phospho-specific antibodies. Membranes were stripped and re-probed for total protein levels and a loading control (α-tubulin). (B) Densitometric quantification of phosphorylated VEGFR2-pY1175 levels in response to VEGF-A and JK-31 treatment. Error bars represent ± SEM (n = 4; ***p<0.001). (C-D) JK-31 inhibits FGF-stimulated intracellular signaling in endothelial cells. HUVECs were pre-treated with JK-31 (0, 0.1, 1, 10 or 50 µM) for 30 min followed by 10 min stimulation with either (C) bFGF (50 ng/ml) or (D) aFGF (50 ng/ml) in the presence of JK-31. Cells were lysed and processed for immunoblotting. Representative immunoblots of three independent experiments are shown.

[2] = target: T1, recombinant human CDK1/cyclin B complex (Homo sapiens, UniProt P06493); assay: 33P in vitro kinase HotSpot profiling assay, CDK1/cyclin B; type: biochemical; settings: [γ-33P]-ATP 10 µM; substrate histone H1; ten-point curves
T1 construct: purchased Reaction Biology
T1 sequence (P06493 whole entry): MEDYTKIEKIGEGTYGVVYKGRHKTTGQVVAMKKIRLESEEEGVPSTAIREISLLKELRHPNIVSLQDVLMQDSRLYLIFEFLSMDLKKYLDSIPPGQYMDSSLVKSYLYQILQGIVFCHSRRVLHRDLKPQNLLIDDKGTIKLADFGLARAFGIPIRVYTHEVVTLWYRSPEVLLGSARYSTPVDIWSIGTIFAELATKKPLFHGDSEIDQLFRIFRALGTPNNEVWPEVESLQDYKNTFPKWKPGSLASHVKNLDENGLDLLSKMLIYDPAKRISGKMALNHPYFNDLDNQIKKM
T1 sequence (P14635 whole entry partner): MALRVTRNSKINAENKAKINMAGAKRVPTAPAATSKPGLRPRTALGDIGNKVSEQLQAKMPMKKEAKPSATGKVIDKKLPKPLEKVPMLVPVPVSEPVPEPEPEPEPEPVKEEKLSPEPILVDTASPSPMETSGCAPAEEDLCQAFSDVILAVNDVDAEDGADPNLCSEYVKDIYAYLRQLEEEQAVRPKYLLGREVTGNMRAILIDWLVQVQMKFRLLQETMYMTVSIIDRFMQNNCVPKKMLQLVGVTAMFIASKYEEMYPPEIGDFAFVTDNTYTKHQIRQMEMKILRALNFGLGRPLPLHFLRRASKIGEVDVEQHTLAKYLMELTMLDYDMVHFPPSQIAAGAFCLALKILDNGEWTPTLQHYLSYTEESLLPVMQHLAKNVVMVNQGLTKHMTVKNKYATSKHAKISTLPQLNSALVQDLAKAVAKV

[3] = test system: mouse aortic ring explants; assay: Ex vivo murine aortic ring angiogenesis assay; type: cell-based; settings: 10 µM and above, six days, Matrigel
Protocol: Three male five-month old wild type C57Bl/6 mice were humanely sacrificed followed by cervical dislocation. A thoraco-abdominal incision was made and the heart and aorta excised and stored in Hank's balanced buffer. The aortas were cleaned by removing connective tissue and adventitia from the exterior and each aorta was cut into 18–24 rings. Ring explants were embedded into growth-factor reduced Matrigel basement membrane matrix (Beckton Dickinson) in a 24-well plate and incubated for 45 min at 37°C to allow the Matrigel to set and the rings to adhere. […] Rings were photographed and the degree of sprouting measured using Cell∧B imaging software (Olympus, Tokyo, Japan). The mean of the three longest angiogenic sprouts on each ring was measured.
Figure 3 JK-31 inhibits angiogenesis in an ex vivo murine model and in vitro. […] (B) Absolute quantification of angiogenic sprout length. For each aortic ring, the mean of three longest sprouts was calculated. […] (D) Fluorescence microscopy analysis of endothelial cell phenotypes and filopodia formation during tubulogenesis in the presence of VEGF-A and JK-31. […] Quantification of (F) mean tubule branch length and (G) mean number of tubule branch points in response to JK-31 and exogenous growth factors. Light micrograph fields were chosen at random and quantification performed using Image J software. […]

[4] = test system: HUVECs; assay: MTS cell viability assay; type: cell-based, human; settings: two days (48 h), concentrations of up to 50 µM
Protocol: 2000 endothelial cells were seeded per well of a 96-well plate and cultured in ECGM overnight. ECGM was then aspirated and cells starved in MCDB131 +0.2% (w/v) BSA for 2 h. After 2 h, media was changed for ECGM with or without DMSO, plus or minus 100 nM, 1 µM, 10 µM or 50 µM JK-31 and cells incubated for 48 h. Then, 10 µl of MTS reagent (CellTiter 96 AQueous Non-Radioactive Cell Proliferation Assay, Promega, Madison, Wisconsin, USA) was added to each well after 44 h. After further incubation for 4-6 h, we monitored the color change caused by reduction of the yellow tetrazolium compound (MTS) by metabolically active cells to brown formazan. Change in color was monitored at 490 nm using a Tecan Sunrise multiwavelength 96-well plate reader (Tecan, Mannedorf, Switzerland).
(A) Relevant protein expression in HUVECs and MCF-7 cells. Total cell lysates were processed for immunoblotting. Membranes were probed with antibodies raised against VEGFR2, CDK1 and β-actin. Representative immunoblot was shown. (B) HUVECs were treated with DMSO or JK-31 (0.1, 1, 10, 50 µM) in full growth medium for 48 h followed by MTS assay and subsequent measurement of absorbance at OD490. Error bars represent ±SEM (n = 5). (TIF) Click here for additional data file.

[5] = test system: HUVECs; assay: Scratch wound healing assay; type: cell-based, human; settings: 10 µM and above, 16 h
Protocol: Figure 4 JK-31 inhibits endothelial wound closure in vitro. (A) Scratch-wounded endothelial cell monolayers were incubated in either full growth medium (grey bars) or stimulated with 25 ng/ml VEGF-A (black bars) for 16 h in the presence of DMSO or JK-31 (1, 10 or 50 µM). Wounded cell monolayers were photographed before and after treatment and wound widths at each time point were measured using Image J software. Percentage wound closure was calculated by [(width before – width after)/width before] ×100. […] (B) Representative phase-contrast micrographs depicting wound closure over 16 h in the presence VEGF-A and either DMSO or JK-31 (10 µM).

[6] = test system: HUVECs; assay: Organotypic tubulogenesis assay (HUVEC-fibroblast co-culture); type: cell-based, human; settings: for inhibition at 10 µM / inhibition at 50 µM: Homo sapiens, HUVEC
Protocol: This assay was performed as previously described, [27]. Primary human foreskin fibroblasts (pHFF) were a gift from Gareth Howell (University of Leeds, UK) and were cultured routinely in DMEM containing 10% (v/v) FBS up to passage 10. In co-culture with HUVECs, the medium was replaced for endothelial cell growth medium (Promocell, Heidelberg, Germany).
Figure 3 JK-31 inhibits angiogenesis in an ex vivo murine model and in vitro. (A) Effects of JK-31 on ex vivo angiogenic sprouting from wild-type mouse aortic ring explants. Aortic rings were seeded onto Matrigel and treated with JK-31 (0, 1, 10 or 50 µM) for six days and imaged by phase-contrast microscopy. Freehand black lines delineate the outermost extent of sprouting. (B) Absolute quantification of angiogenic sprout length. For each aortic ring, the mean of three longest sprouts was calculated. Error bars represent ±SEM (n = 18; ***p<0.001). (C) JK-31 inhibits endothelial tube formation in vitro in response to exogenous VEGF-A. HUVECs were seeded onto a confluent layer of primary fibroblasts and treated with VEGF-A (10 ng/ml) for seven days in the presence of DMSO or JK-31 (1, 10 or 50 µM). Co-cultures were stained with CD31 antibody followed by HRP-conjugated secondary antibody and visualized by light microscopy using […] (DAB)-staining (see Materials and Methods). (D) Fluorescence microscopy analysis of endothelial cell phenotypes and filopodia formation during tubulogenesis in the presence of VEGF-A and JK-31. White arrowheads indicate vestigial lamellipodia-like structures. (E) JK-31 inhibits endothelial tube formation in vitro in response to exogenous bFGF (20 ng/ml). Treatment and processing was carried out as described above. Quantification of (F) mean tubule branch length and (G) mean number of tubule branch points in response to JK-31 and exogenous growth factors. Light micrograph fields were chosen at random and quantification performed using Image J software. Error bars represent ± SEM (n = 10; *p<0.05; **p<0.01; ***p<0.001) for each respective growth factor.

[7] = test system: VEGFR2; assay: Immunoblot of VEGF-A-stimulated VEGFR2 activation and downstream signaling in HUVECs; type: cell-based, human
Protocol: as §1, §2

[8] = test system: IGF-1-mediated signaling; assay: Immunoblot of IGF-1-mediated signaling in HUVECs; type: cell-based, human; settings: JK-31 0.1-50 µM, IGF-1 100 ng/ml 10 min
Protocol: as §1
Supplementary file pone.0110997.s006.tif: Figure S6 Relative specificity of JK-31 for the VEGF-A-VEGFR2 signaling pathway. […] HUVECs were pre-treated with JK-31 (0, 0.1, 1, 10 or 50 µM) for 30 min followed by a 10 min stimulation with either (A) EGF (50 ng/ml) or (B) IGF-1 (100 ng/ml) in the presence of JK-31. Total cell lysates were prepared and processed for immunoblotting. Levels of phosphorylated Akt and ERK1/2 were analysed using phospho-specific antibodies. Membranes were stripped and re-probed for total protein levels and a loading control (α-tubulin). Representative immunoblots of three independent experiments are shown. (TIF) Click here for additional data file.

[9] = test system: HUVECs; assay: Flow cytometry analysis of cell cycle progression, endothelial cells; settings: 48 h
Protocol: (§3) Cells were pelleted at 140 g at 4°C for 5 min and supernatant discarded. Cells were fixed in ice-cold 70% (v/v) ethanol added dropwise and stored at −20°C prior to analysis. Immediately before flow cytometry, cells were pelleted (140 g at 4°C for 5 min), supernatant removed and cells washed twice in 500 µl PBS. 100 µg/ml ribonuclease and 50 µg/ml propidium iodide (Sigma-Aldrich) was added to each sample and incubated for 2–3 h at 37°C. Cells were pelleted (140 g at 4°C for 5 min), supernatant removed and cells washed in 500 µl PBS before being resuspended in 500 µl PBS buffer containing 2.5 mM EDTA. Samples were gated and run at a low flow rate (<1000 events s^−1) on a Fortessa flow cytometer (Becton Dickinson, Oxford, UK) with multi-laser and detection capabilities. The information from 10000 events was collect and data was analyzed using ModFit software (Becton Dickinson).
(H) Quantification of cell cycle ratios after inhibitor treatment. Error bars represent ±SEM (n = 3). ***p<0.001; ****p<0.0001.

[10] = target: T2, recombinant human VEGFR2 (Homo sapiens, UniProt P35968); assay: 33P in vitro kinase HotSpot profiling assay, VEGFR2; type: biochemical
T2 construct: purchased Reaction Biology
T2 sequence (P35968 20-1356): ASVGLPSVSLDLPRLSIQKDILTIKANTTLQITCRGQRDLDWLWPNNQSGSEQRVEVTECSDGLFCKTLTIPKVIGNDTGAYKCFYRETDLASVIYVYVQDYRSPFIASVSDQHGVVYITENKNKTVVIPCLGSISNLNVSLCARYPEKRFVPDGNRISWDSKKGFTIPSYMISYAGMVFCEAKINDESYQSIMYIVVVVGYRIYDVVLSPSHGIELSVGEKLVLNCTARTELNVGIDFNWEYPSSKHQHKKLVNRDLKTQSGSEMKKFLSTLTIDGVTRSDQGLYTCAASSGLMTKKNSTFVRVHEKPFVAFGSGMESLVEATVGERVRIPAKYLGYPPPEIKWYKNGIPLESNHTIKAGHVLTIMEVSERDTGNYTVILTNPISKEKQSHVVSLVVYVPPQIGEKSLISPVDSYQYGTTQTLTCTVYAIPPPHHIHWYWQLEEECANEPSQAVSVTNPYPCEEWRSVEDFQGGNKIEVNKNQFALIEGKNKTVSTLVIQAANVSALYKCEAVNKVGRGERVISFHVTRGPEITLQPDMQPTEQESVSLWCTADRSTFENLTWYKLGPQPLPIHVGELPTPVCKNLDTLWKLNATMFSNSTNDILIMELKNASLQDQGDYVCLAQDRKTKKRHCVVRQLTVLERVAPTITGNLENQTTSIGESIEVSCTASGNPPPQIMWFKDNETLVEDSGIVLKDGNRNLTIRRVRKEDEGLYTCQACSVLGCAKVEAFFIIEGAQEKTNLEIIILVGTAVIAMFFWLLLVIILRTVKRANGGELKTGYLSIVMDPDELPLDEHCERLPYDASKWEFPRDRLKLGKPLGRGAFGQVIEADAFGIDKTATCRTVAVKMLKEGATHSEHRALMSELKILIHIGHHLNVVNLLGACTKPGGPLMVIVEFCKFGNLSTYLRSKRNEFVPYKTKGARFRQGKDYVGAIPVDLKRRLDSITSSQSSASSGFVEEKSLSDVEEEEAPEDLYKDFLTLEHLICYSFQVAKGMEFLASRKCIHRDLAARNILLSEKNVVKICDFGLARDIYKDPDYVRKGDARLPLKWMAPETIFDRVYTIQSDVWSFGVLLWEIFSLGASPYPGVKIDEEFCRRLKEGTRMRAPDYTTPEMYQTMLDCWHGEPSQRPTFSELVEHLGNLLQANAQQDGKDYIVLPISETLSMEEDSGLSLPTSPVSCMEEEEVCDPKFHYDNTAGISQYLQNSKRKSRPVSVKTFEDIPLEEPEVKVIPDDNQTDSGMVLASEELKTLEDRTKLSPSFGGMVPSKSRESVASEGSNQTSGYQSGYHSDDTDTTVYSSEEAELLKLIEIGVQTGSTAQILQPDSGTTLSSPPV

[11] = test system: MCF-7 cells; assay: Flow cytometry analysis of cell cycle progression, breast cancer cells; settings: 48 h
Protocol: as §3
(H) Quantification of cell cycle ratios after inhibitor treatment. Error bars represent ±SEM (n = 3).). *p<0.05; **p<0.01; ***p<0.001; ****p<0.0001.

[12] = target: T1, recombinant human CDK1/cyclin B complex; design: method as in PMID 16204078; settings: relative potency from IC50 values of a previous study; cited from earlier work
[13] = JK-31 10 or 50 µM, vs asynchronous controls

IC50 [2]: 2540 nM
Cellular IC50 relative to cell-free phosphorylation assay ([7]; VEGF-A-stimulated VEGFR2 activation and downstream signaling in endothelial cells vs recombinant kinases): approximately 10 fold
IC50 ([10]; [γ-33P]-ATP 10 µM, substrate poly[Glu:Tyr] (4:1), ten-point curves): 627 nM
Selectivity for VEGFR2 than CDK1 ([10]; relative potency from IC50 values): ~4 fold
SMILES: CC(C)(C)c1ccc(C(=O)n2nc(Nc3ccccc3)nc2N)cc1 [JK-31, (5-amino-3-(phenylamino)-1H-1,2,4-triazol-1-yl)(4-(tert-butyl)phenyl)methanone]
ERK1/2 phosphorylation in response to aFGF ([1]; aFGF 50 ng/ml 10 min): dose-dependent inhibition
ERK1/2 phosphorylation in response to bFGF ([1]; bFGF 50 ng/ml 10 min): dose-dependent inhibition
Inhibition of radial angiogenic sprout formation [3]: more than 40%
Cytotoxic effects on endothelial cells (cell viability, MTS) [4]: no significant cytotoxic effects
VEGF-A-stimulated wound closure ([5]; VEGF-A 25 ng/ml): completely inhibited
Wound closure in full growth medium ([5]; full growth medium): only partially inhibited
Reduction of bFGF-stimulated branching ([6]; 10 µM, bFGF 20 ng/ml): more than 90%
Endothelial tubule phenotype ([6]; 10 µM, in the presence of VEGF-A): aberrant hyper-branched endothelial tubule phenotype
Reduction in branching (VEGF-A) ([6]; 50 µM, VEGF-A 10 ng/ml, seven days): more than 80%
Reduction of bFGF-stimulated branching ([6]; 50 µM, bFGF 20 ng/ml): more than 90%
inhibition at 10 µM ([6]; 168 h, 10 µM, VEGF-A 10 ng/ml, seven days, read-out: Inhibition of VEGF-A-stimulated endothelial tube formation): ~35%
inhibition at 50 µM ([6]; 168 h, 50 µM, VEGF-A 10 ng/ml, seven days, read-out: Inhibition of VEGF-A-stimulated endothelial tube formation): > 80%
inhibition at 10 µM ([6]; 10 µM, bFGF 20 ng/ml, read-out: Inhibition of bFGF-stimulated endothelial tube formation): ~75%
inhibition at 50 µM ([6]; 50 µM, bFGF 20 ng/ml, read-out: Inhibition of bFGF-stimulated endothelial tube formation): > 95%
Inhibition of phosphorylation of residue Y1175 within VEGFR2 ([7]; HUVECs, JK-31 10 µM and above, 30 min pre-treatment, VEGF-A 25 ng/ml 7.5 min): > 60%
VEGF-A-stimulated signal transduction (PLCγ1-pY783, Akt-pS473, ERK1/2-pT202/pY204) ([7]; HUVECs, JK-31 0.1-50 µM, VEGF-A 25 ng/ml 7.5 min): inhibited VEGF-A-stimulated signal transduction in a dose-dependent manner
ERK1/2 phosphorylation in response to IGF-1 [8]: not in response to either EGF or IGF-1
Number of cells present in G1 ([9]; JK-31 10 or 50 µM): significant increase in the number of cells present in G1
Proportion of cells in G2/M phase [9, 13]: significant decrease in the proportion of cells in the G2/M phase
Number of cells present in S phase ([9]; JK-31 treatment): not a significant change
Number of cells present in G1 ([11]; JK-31 10 or 50 µM): significant increase in the number of cells present in G1
Proportion of cells in G2/M phase [11, 13]: significant decrease in the proportion of cells in the G2/M phase
Number of cells present in S phase ([11]; JK-31 treatment): significantly decreased

SMILES: Nc1nc(Nc2ccc(S(N)(=O)=O)cc2)nn1C(=O)c1c(F)cccc1F [JNJ-7706621]
More potent inhibitor of CDK1 than VEGFR2 [12]: ~17 fold
